Laboratory results as given in patent US11780826B2 (Amgen Inc., priority 2017, dated 2023).

System: Bovine cardiac myofibrils
Assay: In vitro model of dose-dependent myofibril ATPase modulation (AC1.4, pyruvate kinase/lactate dehydrogenase-coupled ATPase assay at pCa25)
Format: biochemical
Conditions: concentration at which ATPase activity was 1.4-fold higher than the bottom of the dose curve, mean of a minimum of two independent tests
Method: In vitro Model of Dose-Dependent Myofibril ATPase Modulation: Dose responses were measured using a calcium-buffered, pyruvate kinase and lactate dehydrogenase-coupled ATPase assay containing the following reagents (concentrations expressed are final assay concentrations): Potassium PIPES (12 mM), MgCl2 (2 mM), ATP (1 mM), DTT (1 mM), BSA (0.1 mg/mi), NADH (0.5 mM), PEP (1.5 mM), pyruvate kinase (4 U/ml), lactate dehydrogenase (8 U/ml), and antifoam (90 ppm). The pH was adjusted to 6.80 at 22° C. by addition of potassium hydroxide.
Bovine cardiac myofibrils were obtained by homogenizing the appropriate tissue in the presence of detergent. Such treatment removes membranes and majority of soluble cytoplasmic proteins but leaves intact cardiac sarcomeric acto-myosin apparatus. Concentrations of myofibrils were adjusted to achieve the necessary rate of ATP hydrolysis (typically 0.25-1.0 mg/ml).
Assays were performed by first preparing a dilution series of test chemical entity, each with an assay mixture containing potassium Pipes, MgCl2, BSA, DTT, pyruvate kinase, lactate dehydrogenase, myofibrils, antifoam, EGTA, CaCl2, and water. The assay was started by adding an equal volume of solution containing potassium Pipes, MgCl2, BSA, DTT, ATP, NADH, PEP, antifoam, and water. ATP hydrolysis was monitored by absorbance at 340 nm. The resulting dose response curve was fit by the 4 parameter equation y=Bottom+((Top−Bottom)/(1+((EC50/X)^Hill))). […] AC1.4 values reported in the table below are mean values based on a minimum of two independent tests.

| SMILES | AC1.4 |
| --- | --- |
| N#CC1CN(S(=O)(=O)N2CCC[C@H](C(=O)N3CCC[C@@H]3C(=O)N[C@H](CCO)c3ccc(C(F)(F)F)cc3)C2)C1 [Example 36, 1-(((3S)-1-((3-cyano-1-azetidinyl)sulfonyl)-3-piperidinyl)carbonyl)-N-((1R)-3-hydroxy-1-(4-(trifluoromethyl)phenyl)propyl)-D-prolinamide] | 0.03765 µM |
| N#CC1CN(S(=O)(=O)c2cccc(C(=O)N3CCC[C@@H]3C(=O)N[C@H](c3ccc(C(F)(F)F)cc3)C3CC3)c2)C1 [Example 37, 1-(3-((3-cyano-1-azetidinyl)sulfonyl)benzoyl)-N-((S)-cyclopropyl(4-(trifluoromethyl)phenyl)methyl)-D-prolinamide] | 0.0383 µM |
| N#CC1CN(S(=O)(=O)N2CCC[C@H](C(=O)N3CCC[C@@H]3C(=O)NCc3ccc(C(F)(F)F)c(Cl)c3)C2)C1 [Example 38, N-(3-chloro-4-(trifluoromethyl)benzyl)-1-(((3S)-1-((3-cyano-1-azetidinyl)sulfonyl)-3-piperidinyl)carbonyl)-D-prolinamide] | 0.0394 µM |
| N#CC1CN(S(=O)(=O)N2CCC[C@H](C(=O)N3CCC[C@@H]3C(=O)N[C@@H](c3cc(F)c(Cl)cc3F)C3CC3)C2)C1 [Example 39, N-((R)-(4-chloro-2,5-difluorophenyl)(cyclopropyl)methyl)-1-(((3S)-1-((3-cyano-1-azetidinyl)sulfonyl)-3-piperidinyl)carbonyl)-D-prolinamide] | 0.0394 µM |
| CS(=O)(=O)c1ccc(NC2CCC2)c(C(=O)N2[C@@H](C(=O)N[C@@H](c3ccc(C(F)(F)F)cc3F)C3CC3)C[C@H]3C[C@H]32)c1 [Example 40, (1R,3R,5R)-2-(2-(cyclobutylamino)-5-(methylsulfonyl)benzoyl)-N-((R)-cyclopropyl(2-fluoro-4-(trifluoromethyl)phenyl)methyl)-2-azabicyclo[3.1.0]hexane-3-carboxamide] | 0.0398 µM |
| C[C@@H](NC(=O)[C@H]1CCCN1C(=O)c1cccc(S(=O)(=O)N2CC(C#N)C2)c1)c1ccc(C(F)(F)F)cc1 [Example 41, 1-((3-((3-cyano-1-azetidinyl)sulfonyl)phenyl)carbonyl)-N-((1R)-1-(4-(trifluoromethyl)phenyl)ethyl)-D-prolinamide] | 0.04135 µM |
| N#CC1CN(S(=O)(=O)c2cccc(C(=O)N3CCC[C@@H]3C(=O)NCc3ccc(C(F)(F)F)cc3F)c2)C1 [Example 42, 1-((3-((3-cyano-1-azetidinyl)sulfonyl)phenyl)carbonyl)-N-(2-fluoro-4-(trifluoromethyl)benzyl)-D-prolinamide] | 0.04293 µM |
| N#CC1CN(S(=O)(=O)c2cccc(C(=O)N3CCC[C@@H]3C(=O)NCc3ccc(Cl)cc3)c2)C1 [Example 43, N-(4-chlorobenzyl)-1-((3-((3-cyano-1-azetidinyl)sulfonyl)phenyl)carbonyl)-D-prolinamide] | 0.04337 µM |
| CS(=O)(=O)c1ccc(NC2CCC2)c(C(=O)N2CCC[C@@H]2C(=O)N[C@@H](c2ccc(C(F)(F)F)cc2F)C2CC2)c1 [Example 44, 1-(2-(cyclobutylamino)-5-(methylsulfonyl)benzoyl)-N-((R)-cyclopropyl(2-fluoro-4-(trifluoromethyl)phenyl)methyl)-D-prolinamide] | 0.0434 µM |
| CC(C)C[C@@H](NC(=O)[C@H]1CCCN1C(=O)c1cccc(S(=O)(=O)N2CC(C#N)C2)c1)c1ccc(C(F)(F)F)cc1 [Example 45, 1-(3-((3-cyano-1-azetidinyl)sulfonyl)benzoyl)-N-((1R)-3-methyl-1-(4-(trifluoromethyl)phenyl)butyl)-D-prolinamide] | 0.0435 µM |
| Cc1ccc([C@@H](C)NC(=O)[C@H]2CCCN2C(=O)c2cccc(S(=O)(=O)N3CC(C#N)C3)c2)c(F)c1 [Example 46, 1-((3-((3-cyano-1-azetidinyl)sulfonyl)phenyl)carbonyl)-N-((1R)-1-(2-fluoro-4-methylphenyl)ethyl)-D-prolinamide] | 0.0456 µM |
| N#CC1CN(S(=O)(=O)N2CCC[C@H](C(=O)N3CCC[C@@H]3C(=O)N[C@H](c3cc(F)c(Cl)cc3F)C3CNC3)C2)C1 [Example 47, N-((S)-3-azetidinyl(4-chloro-2,5-difluorophenyl)methyl)-1-(((3S)-1-((3-cyano-1-azetidinyl)sulfonyl)-3-piperidinyl)carbonyl)-D-prolinamide] | 0.0527 µM |
| C[C@@H](NC(=O)[C@H]1CCCN1C(=O)[C@H]1CCCN(S(=O)(=O)N2CC(C#N)C2)C1)c1cc(F)c(Cl)cc1F [Example 48, N-((1R)-1-(4-chloro-2,5-difluorophenyl)ethyl)-1-(((3S)-1-((3-cyano-1-azetidinyl)sulfonyl)-3-piperidinyl)carbonyl)-D-prolinamide] | 0.0531 µM |

Second part, the molecule after the results:

| AC1.4 | SMILES |
| --- | --- |
| 0.05315 µM | C[C@@H](NC(=O)[C@H]1CCCN1C(=O)c1cccc(S(=O)(=O)N2CC(C#N)C2)c1)c1ccc(C(F)F)cc1F [Example 49, 1-((3-((3-cyano-1-azetidinyl)sulfonyl)phenyl)carbonyl)-N-((1R)-1-(4-(difluoromethyl)-2-fluorophenyl)ethyl)-D-prolinamide] |
| 0.0546 µM | CCNc1ccc(S(C)(=O)=O)cc1C(=O)N1[C@@H](C(=O)N[C@@H](c2ccc(C(F)(F)F)cc2F)C2CC2)C[C@H]2C[C@H]21 [Example 50, (1R,3R,5R)-N-((R)-cyclopropyl(2-fluoro-4-(trifluoromethyl)phenyl)methyl)-2-(2-(ethylamino)-5-(methylsulfonyl)benzoyl)-2-azabicyclo[3.1.0]hexane-3-carboxamide] |
| 0.0553 µM | N#CC1CN(S(=O)(=O)N2CCC[C@H](C(=O)N3CCC[C@@H]3C(=O)NCc3ccc(Cl)c(F)c3)C2)C1 [Example 51, N-(4-chloro-3-fluorobenzyl)-1-(((3S)-1-((3-cyano-1-azetidinyl)sulfonyl)-3-piperidinyl)carbonyl)-D-prolinamide] |
| 0.05535 µM | N#CC1CN(S(=O)(=O)c2cccc(C(=O)N3CCC[C@@H]3C(=O)N[C@@H](c3ccc(S(F)(F)(F)(F)F)cc3)C3CC3)c2)C1 [Example 52, 1-(3-((3-cyano-1-azetidinyl)sulfonyl)benzoyl)-N-((R)-cyclopropyl(4-(pentafluoro-lambda~6~-sulfanyl)phenyl)methyl)-D-prolinamide] |
| 0.0574 µM | N#CC1CN(S(=O)(=O)c2cc(F)cc(C(=O)N3CCC[C@@H]3C(=O)NCc3ccc(C(F)(F)F)cc3)c2)C1 [Example 53, 1-((3-((3-cyano-1-azetidinyl)sulfonyl)-5-fluorophenyl)carbonyl)-N-(4-(trifluoromethyl)benzyl)-D-prolinamide] |
| 0.0583 µM | C[C@@H](NC(=O)[C@H]1COCCN1C(=O)[C@H]1CCCN(S(=O)(=O)N2CC(C#N)C2)C1)c1ccc(C(F)(F)F)cc1F [Example 54, (3R)-4-(((3S)-1-((3-cyano-1-azetidinyl)sulfonyl)-3-piperidinyl)carbonyl)-N-((1R)-1-(2-fluoro-4-(trifluoromethyl)phenyl)ethyl)-3-morpholinecarboxamide] |
| 0.0606 µM | N#CC1CN(S(=O)(=O)c2cccc(C(=O)N3CCC[C@@H]3C(=O)NCc3cc(F)cc(F)c3)c2)C1 [Example 55, 1-(3-((3-cyano-1-azetidinyl)sulfonyl)benzoyl)-N-(3,5-difluorobenzyl)-D-prolinamide] |
